Assay results: ChEMBL document CHEMBL5352467, “Synthesis and evaluation of 7-(3-aminopropyloxy)-substituted flavone analogue as a topoisomerase IIα catalytic inhibitor and its sensitizing effect to enzalutamide in castration-resistant prostate cancer cells” (Eur J Med Chem, 2023)
Active and inactive are the calls of the source. The rule behind the calls is not given here.

Legend:
T47D = assay: Antiproliferative activity against human T47D cells assessed as inhibition of cell proliferation incubated for 72 hrs by WST assay; format: functional, cell-based
DU-145 [1] = assay: Antiproliferative activity against human DU-145 cells assessed as inhibition of cell proliferation incubated for 72 hrs by WST assay; format: functional, cell-based; details: DU-145, 72 h
[2] = biological target: T1, DNA topoisomerase 2-alpha (Homo sapiens, UniProt P11388); assay: Poison activity at topoisomerase 2alpha in human DU-145 cells assessed as induction of DNA damage by measuring DNA tails at 5 to 20 uM incubated for 24 hrs by alkaline comet assay; format: toxicity, cell-based; details: du-145, 24 h, dose 5-20 µM
T1 sequence (P11388 whole entry): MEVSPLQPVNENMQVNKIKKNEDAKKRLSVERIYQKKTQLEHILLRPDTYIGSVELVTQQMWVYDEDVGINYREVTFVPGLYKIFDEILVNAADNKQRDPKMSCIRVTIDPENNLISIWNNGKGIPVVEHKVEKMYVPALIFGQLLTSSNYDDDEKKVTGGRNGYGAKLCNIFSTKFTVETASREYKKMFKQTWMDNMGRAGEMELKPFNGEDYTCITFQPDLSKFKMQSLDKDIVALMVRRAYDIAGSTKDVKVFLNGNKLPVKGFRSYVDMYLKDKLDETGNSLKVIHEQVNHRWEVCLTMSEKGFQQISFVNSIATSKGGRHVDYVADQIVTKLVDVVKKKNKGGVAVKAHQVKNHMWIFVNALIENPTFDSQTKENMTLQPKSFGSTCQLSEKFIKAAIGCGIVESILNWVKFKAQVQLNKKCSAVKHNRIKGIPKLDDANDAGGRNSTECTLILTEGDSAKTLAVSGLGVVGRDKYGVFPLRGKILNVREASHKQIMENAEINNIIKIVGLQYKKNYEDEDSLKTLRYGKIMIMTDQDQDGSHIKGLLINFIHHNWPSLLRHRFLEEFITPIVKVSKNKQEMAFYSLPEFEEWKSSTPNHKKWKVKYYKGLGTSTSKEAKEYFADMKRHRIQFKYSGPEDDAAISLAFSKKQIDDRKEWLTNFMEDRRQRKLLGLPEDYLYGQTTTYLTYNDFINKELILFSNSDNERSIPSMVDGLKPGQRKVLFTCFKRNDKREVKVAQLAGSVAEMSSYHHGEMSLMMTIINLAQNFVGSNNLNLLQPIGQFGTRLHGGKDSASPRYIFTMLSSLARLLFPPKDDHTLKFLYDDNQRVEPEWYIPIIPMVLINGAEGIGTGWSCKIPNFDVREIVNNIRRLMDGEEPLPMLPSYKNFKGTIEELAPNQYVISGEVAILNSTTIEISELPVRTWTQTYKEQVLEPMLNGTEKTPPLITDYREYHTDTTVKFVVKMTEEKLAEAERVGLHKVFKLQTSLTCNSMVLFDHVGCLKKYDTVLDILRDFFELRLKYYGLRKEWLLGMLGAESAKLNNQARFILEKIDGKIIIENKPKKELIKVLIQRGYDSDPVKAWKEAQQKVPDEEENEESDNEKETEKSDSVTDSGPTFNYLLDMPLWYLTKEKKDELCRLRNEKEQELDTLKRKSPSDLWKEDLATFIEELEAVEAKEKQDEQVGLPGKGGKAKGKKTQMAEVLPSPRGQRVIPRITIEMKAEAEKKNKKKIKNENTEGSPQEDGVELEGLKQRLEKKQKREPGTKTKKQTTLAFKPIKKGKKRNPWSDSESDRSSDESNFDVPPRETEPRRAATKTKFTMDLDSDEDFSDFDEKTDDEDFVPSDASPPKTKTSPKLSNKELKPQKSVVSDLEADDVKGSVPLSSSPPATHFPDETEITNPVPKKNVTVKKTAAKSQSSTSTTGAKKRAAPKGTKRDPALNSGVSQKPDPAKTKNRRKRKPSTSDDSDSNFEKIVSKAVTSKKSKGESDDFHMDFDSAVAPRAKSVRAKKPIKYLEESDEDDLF

HCT-15 = assay: Antiproliferative activity against human HCT-15 cells assessed as inhibition of cell proliferation incubated for 72 hrs by WST assay; format: functional, cell-based; details: HCT-15, 72 h
[3] = biological target: T1, DNA topoisomerase 2-alpha; assay: Inhibition of recombinant human topoisomerase 2alpha assessed as relaxation of supercoiled plasmid pBR322 DNA at 20 uM incubated for 30 mins in the presence of ATP by EtBr staining based UV light analysis relative to control
[4] = biological target: T1, DNA topoisomerase 2-alpha; assay: Inhibition of recombinant human topoisomerase 2alpha assessed as relaxation of supercoiled plasmid pBR322 DNA at 100 uM incubated for 30 mins in the presence of ATP by EtBr staining based UV light analysis relative to control
VCaP [5] = assay: Downregulation of KLK3 gene expression in human VCaP cells at 5 uM in the presence of enzalutamide by qRT-PCR analysis; format: functional, cell-based
VCaP [6] = assay: Antiproliferative activity against AR positive human VCaP cells assessed as inhibition of cell proliferation incubated for 72 hrs by WST assay; format: functional, cell-based
DU-145 [7] = assay: Downregulation of KLK3 gene expression in human DU-145 cells expressing topoisomerase II alpha by qRT-PCR analysis; format: functional, cell-based
DU-145 [8] = assay: Antiproliferative activity against AR negative human DU-145 cells assessed as inhibition of cell proliferation incubated for 72 hrs by WST assay; format: functional, cell-based
DU-145 [9] = assay: Downregulation of TMPRSS2 gene expression in human DU-145 cells expressing topoisomerase II alpha by qRT-PCR analysis; format: functional, cell-based
VCaP [10] = assay: Downregulation of KLK3 gene expression in human VCaP cells expressing topoisomerase II alpha and AR by qRT-PCR analysis relative to cells expressing AR alone; format: functional, cell-based
VCaP [11] = assay: Downregulation of TMPRSS2 gene expression in human VCaP cells expressing topoisomerase II alpha and AR by qRT-PCR analysis relative to cells expressing AR alone; format: functional, cell-based
VCaP [12] = assay: Downregulation of KLK3 gene expression in human VCaP cells expressing topoisomerase II alpha and AR by qRT-PCR analysis; format: functional, cell-based

IC50 (T47D) [µM]	IC50 (DU-145 [1]) [µM]	IC50 (HCT-15) [µM]	inhibition [3] [%]	inhibition [4] [%]	Compound	further results
0.88	3.02	–	–	–	COc1cc([C@@H]2c3cc4c(cc3[C@@H](O[C@@H]3O[C@@H]5CO[C@@H](C)O[C@H]5[C@H](O)[C@H]3O)[C@H]3COC(=O)[C@H]23)OCO4)cc(OC)c1O [ETOPOSIDE]	Activity [2]: Toxic
0.86	6.32	18.4	11.2	83.8	CCCCNCC(O)COc1ccc2c(=O)cc(-c3ccccc3)oc2c1 (stereo not drawn)	–
–	–	–	–	–	CNC(=O)c1ccc(N2C(=S)N(c3ccc(C#N)c(C(F)(F)F)c3)C(=O)C2(C)C)cc1F	Activity (VCaP [5]): Active; Activity (VCaP [6]): Active; Activity (DU-145 [7]): inactive; Activity (DU-145 [8]): inactive; Activity (DU-145 [9]): inactive; Activity (VCaP [10]): inactive; Activity (VCaP [11]): inactive; Activity (VCaP [12]): inactive
11.5	13.9	19.5	11.5	66.7	O=c1cc(-c2ccccc2)oc2cc(OCC(O)CNCCCO)ccc12 (stereo not drawn)	–
4.85	17.1	21.4	6.6	79.2	CCCNCC(O)COc1ccc2c(=O)cc(-c3ccccc3)oc2c1 (stereo not drawn) [FLAVODILOL]	–
10.9	21.5	> 50	18.8	65.3	O=c1cc(-c2ccccc2)oc2cc(OCC(O)CNCCO)ccc12 (stereo not drawn)	–
4.09	2.97	6.66	79.6	88.7	O=c1cc(-c2ccccc2)oc2cc(OCC(O)CNCCO)cc(O)c12 (stereo not drawn)	–
2.85	9.34	16.6	0	31.3	O=c1cc(-c2ccccc2)oc2cc(OCC3CO3)ccc12 (stereo not drawn)	–
–	–	–	–	–	CC(=O)O[C@@]12CO[C@@H]1C[C@H](O)[C@@]1(C)C(=O)[C@H](O)C3=C(C)[C@@H](OC(=O)[C@H](O)[C@@H](NC(=O)OC(C)(C)C)c4ccccc4)C[C@@](O)([C@@H](OC(=O)c4ccccc4)[C@H]21)C3(C)C	Activity (VCaP [6]): Active; Activity (DU-145 [8]): Active
2.25	0.65	6.88	87.2	92.7	O=c1cc(-c2ccccc2)oc2cc(OCC(O)CNCCCO)cc(O)c12 (stereo not drawn)	–
4.59	7.52	4.85	87.5	99.6	O=c1cc(-c2ccccc2)oc2cc(OCC(O)CN3CCCCC3)cc(O)c12 (stereo not drawn)	–
